The target in assay [1] is NA activity of influenza virus PR8 (Influenza A virus, UniProt P03468). Type of assay: biochemical.
In assay [2] the target is NA activity of rgPR8(H275Y) (Influenza A virus, UniProt P03468, H260Y). The assay is classed as biochemical.

For `O=C(O)/C=C/c1ccc(O)c(O)c1` [PC8, Caffeic acid], in assay [1], the “NA inhibitory effect against PR8” value is given as “less potent than that of OSV-C”. Further, the “NA inhibitory effect against rgPR8(H275Y)” value in assay [2] is reported as “consistent activity”.

Values taken from article PMC5361735, “Characterization and mechanisms of anti-influenza virus metabolites isolated from the Vietnamese medicinal plant Polygonum chinense” (BMC Complementary and Alternative Medicine, 2017).
